From BindingDB's records for doi:10.1016/s0960-894x(01)00395-x (Novo Nordisk, 2001)
pIC50: −log10 of the molar value.

Target: Glucose-6-phosphatase catalytic subunit (Sus scrofa)
Experiment: Compound was evaluated for inhibition of Glucose-6-Phosphatase from Triton X-100 disrupted pig liver microsomes.

pIC50	Compound
5.96	C(=N\N(Cc1ccccc1)Cc1ccccc1)/c1ccco1 [N,N-Dibenzyl-N'-[1-furan-2-yl-meth-(E)-ylidene]-hydrazine]
6.62	Clc1ccc(/C=N/N(Cc2ccccc2)Cc2ccccc2)cc1 [N,N-Dibenzyl-N'-[1-(4-chloro-phenyl)-meth-(E)-ylidene]-hydrazine]
5.82	C(=N\N(Cc1ccccc1)Cc1ccccc1)/c1cccs1 [N,N-Dibenzyl-N'-[1-thiophen-2-yl-meth-(E)-ylidene]-hydrazine]
4.80	OCc1ccc(/C=N/N(Cc2ccccc2)Cc2ccccc2)o1 [[5-(Dibenzyl-hydrazonomethyl)-furan-2-yl]-methanol]
< 4.00	Clc1cc(Cl)cc(/C=N/N(Cc2ccccc2)Cc2ccccc2)c1 [N,N-Dibenzyl-N'-[1-(3,5-dichloro-phenyl)-meth-(E)-ylidene]-hydrazine]
4.00	CN(C)c1ccc(/C=N/N(Cc2ccccc2)Cc2ccccc2)cc1 [[4-(Dibenzyl-hydrazonomethyl)-phenyl]-dimethyl-amine]
5.43	C(=N\N(Cc1ccccc1)Cc1ccccc1)/c1cccnc1 [N,N-Dibenzyl-N'-[1-pyridin-3-yl-meth-(E)-ylidene]-hydrazine]
6.77	Clc1ccc(/C=N/N(Cc2ccccc2)Cc2ccccc2)s1 [N,N-Dibenzyl-N'-[1-(5-chloro-thiophen-2-yl)-meth-(E)-ylidene]-hydrazine]
5.70	Clc1ccc(/C=N/N(Cc2ccccc2)Cc2ccccc2)cc1Cl [N,N-Dibenzyl-N'-[1-(3,4-dichloro-phenyl)-meth-(E)-ylidene]-hydrazine]
5.62	Oc1ccc(/C=N/N(Cc2ccccc2)Cc2ccccc2)cc1 [4-(Dibenzyl-hydrazonomethyl)-phenol]
< 4.30	COc1ccc2c(c1)CCCC2=NN(Cc1ccccc1)Cc1ccccc1 [N,N-Dibenzyl-N'-[6-methoxy-3,4-dihydro-2H-naphthalen-(1E)-ylidene]-hydrazine]
6.48	CCc1ccc(/C=N/N(Cc2ccccc2)Cc2ccccc2)o1 [N,N-Dibenzyl-N'-[1-(5-ethyl-furan-2-yl)-meth-(E)-ylidene]-hydrazine]
6.66	COc1ccc(/C=N/N(Cc2ccccc2)Cc2ccccc2)cc1 [N,N-Dibenzyl-N'-[1-(4-methoxy-phenyl)-meth-(E)-ylidene]-hydrazine]
5.82	C(=N\N(Cc1ccccc1)Cc1ccccc1)/c1ccccc1 [N,N-Dibenzyl-N'-[1-phenyl-meth-(E)-ylidene]-hydrazine]
< 4.00	COc1ccccc1/C=N/N(Cc1ccccc1)Cc1ccccc1 [N,N-Dibenzyl-N'-[1-(2-methoxy-phenyl)-meth-(E)-ylidene]-hydrazine]
